From patent US10729668B2, “Ketobutyrate compounds and compositions for treating age-related symptoms and diseases” (The Regents of the University of California, priority 2014, dated 2020)

What was measured:
[1] = target: T1, Complex II (Mus musculus, UniProt Q8K2B3+Q9CQA3+Q9CXV1+Q9CZB0); test: Complex II driven coupling assay, isolated liver mitochondria (succinate and rotenone); type: biochemical; conditions: succinate supplemented
T1 construct: Mitochondria were isolated from mouse liver as described earlier; from tissue; host or cells: liver mitochondria of 3-month-old C57BL/6 mice
T1 sequence (Q8K2B3 43-664): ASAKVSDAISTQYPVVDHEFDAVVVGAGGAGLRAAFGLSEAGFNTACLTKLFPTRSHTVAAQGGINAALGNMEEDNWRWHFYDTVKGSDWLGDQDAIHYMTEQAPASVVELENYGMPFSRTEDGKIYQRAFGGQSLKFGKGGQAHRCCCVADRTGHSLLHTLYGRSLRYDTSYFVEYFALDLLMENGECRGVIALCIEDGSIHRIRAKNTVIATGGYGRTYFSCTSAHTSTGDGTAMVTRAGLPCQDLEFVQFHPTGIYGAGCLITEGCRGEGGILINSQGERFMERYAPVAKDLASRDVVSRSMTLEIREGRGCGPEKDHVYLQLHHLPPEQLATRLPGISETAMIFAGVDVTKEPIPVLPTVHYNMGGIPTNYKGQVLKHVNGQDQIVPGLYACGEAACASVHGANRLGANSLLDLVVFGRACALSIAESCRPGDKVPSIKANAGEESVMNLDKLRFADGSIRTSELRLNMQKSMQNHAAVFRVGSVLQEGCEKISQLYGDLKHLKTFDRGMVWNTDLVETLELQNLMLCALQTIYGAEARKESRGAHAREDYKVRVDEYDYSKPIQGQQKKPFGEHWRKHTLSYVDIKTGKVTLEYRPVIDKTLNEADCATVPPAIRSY
T1 sequence (Q9CQA3 31-282): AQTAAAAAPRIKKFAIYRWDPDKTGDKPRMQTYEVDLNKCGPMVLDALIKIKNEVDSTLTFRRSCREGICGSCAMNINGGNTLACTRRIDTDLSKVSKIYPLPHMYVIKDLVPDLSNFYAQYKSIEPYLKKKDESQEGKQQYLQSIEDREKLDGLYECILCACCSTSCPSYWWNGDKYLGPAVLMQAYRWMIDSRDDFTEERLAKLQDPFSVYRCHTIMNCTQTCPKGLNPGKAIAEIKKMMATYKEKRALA
T1 sequence (Q9CZB0 30-169): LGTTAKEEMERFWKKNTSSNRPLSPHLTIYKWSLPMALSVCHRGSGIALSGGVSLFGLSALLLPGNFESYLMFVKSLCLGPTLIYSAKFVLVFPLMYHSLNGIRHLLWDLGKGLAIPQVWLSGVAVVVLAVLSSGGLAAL
T1 sequence (Q9CXV1 57-159): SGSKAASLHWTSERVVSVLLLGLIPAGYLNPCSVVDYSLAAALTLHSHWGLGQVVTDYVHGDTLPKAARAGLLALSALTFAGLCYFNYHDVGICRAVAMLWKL
Protocol: Animal studies were performed under approved UCLA animal research protocols. Mitochondria from 3-month-old C57BL/6 mice were isolated. Briefly, livers were extracted, minced at 4° C. in MSHE+BSA (70 mM sucrose, 210 mM mannitol, 5 mM HEPES, 1 mM EGTA, and 0.5% fatty acid free BSA, pH 7.2), and rinsed several times to remove blood. All subsequent steps were performed on ice or at 4° C. The tissue was disrupted in 10 volumes of MSHE+BSA with a glass Dounce homogenizer (5-6 strokes) and the homogenate was centrifuged at 800×g for 10 minutes to remove tissue debris and nuclei. The supernatant was decanted through a cell strainer and centrifuged at 8,000×g for 10 minutes. The dark mitochondrial pellet was resuspended in MSHE+BSA and re-centrifuged at 8,000×g for 10 minutes. The final mitochondrial pellet was resuspended in 30 μl of MAS buffer (70 mM sucrose, 220 mM mannitol, 10 mM KH2PO4, 5 mM MgCl2, 2 mM HEPES, 1 mM EGTA, and 0.2% fatty acid free BSA, pH 7.2). Isolated mitochondrial respiration was measured by running coupling and electron flow assays as described. […]
Mitochondrial respiration was measured by running coupling and electron flow assays. […]

[2] = tested on: NADH dehydrogenase; test: Electron flow assay, isolated liver mitochondria; type: biochemical, mouse
Protocol: Animal studies were performed under approved UCLA animal research protocols. Mitochondria from 3-month-old C57BL/6 mice were isolated. Briefly, livers were extracted, minced at 4° C. in MSHE+BSA (70 mM sucrose, 210 mM mannitol, 5 mM HEPES, 1 mM EGTA, and 0.5% fatty acid free BSA, pH 7.2), and rinsed several times to remove blood. All subsequent steps were performed on ice or at 4° C. The tissue was disrupted in 10 volumes of MSHE+BSA with a glass Dounce homogenizer (5-6 strokes) and the homogenate was centrifuged at 800×g for 10 minutes to remove tissue debris and nuclei. The supernatant was decanted through a cell strainer and centrifuged at 8,000×g for 10 minutes. […] Isolated mitochondrial respiration was measured by running coupling and electron flow assays as described. […] After basal readings, the sequential injections were as follows: 2 μM rotenone (Complex I inhibitor), 10 mM succinate (Complex II substrate), 4 μM antimycin A (Complex III inhibitor), and 10 mM/100 μM ascorbate/tetramethylphenylenediamine (Complex IV substrate). […]

[3] = tested on: C2C12 Cells; test: Oxygen consumption rate (OCR) in C2C12 cells, Seahorse XF-24; type: cell-based, mouse; conditions: 1 hour treatment
Protocol: Measurement of oxygen consumption rates (OCR). OCR measurements were made using a Seahorse XF-24 analyzer (Seahorse Bioscience). C2C12 Cells were seeded in Seahorse XF-24 cell culture microplates at 30,000 cells per well in DMEM media supplemented with 10% FBS and 10 mM glucose, and incubated at 37° C. and 5% CO2 overnight. Treatment with α-KB or DMSO (vehicle control) was for 1 hour. Cells were washed in unbuffered DMEM medium (pH 7.4, 10 mM glucose) just before measurements, and maintained in this buffer with indicated concentrations of α-KB. OCR was measured three times under basal conditions and normalized to protein concentration per well.

Q: For `C[C@@H](O)CC(=O)O` [3-HB, (R)-3-hydroxybutyrate, reference compound], which “mitochondrial respiration, Complex II-driven coupling” value [1] is on record?
A: does not affect

Q: And the “respiration in electron flow assay” value [2]?
A: does not affect

Q: What about the basal respiration [3] of the same compound?
A: does not have any effect

Q: What about the “maximal respiration (mitochondrial respiration upon FCCP treatment)” value [3] of the same compound?
A: does not have any effect
